According to ChEMBL document CHEMBL4184197 (Bioorg Med Chem, 2018):

Assays:
[1] = molecular target: T1, Retinoic acid receptor alpha (Mus musculus) (UniProt P11416); experiment: Transactivation of mouse Gal4-fused RARalpha-LBD expressed in COS-7 cells after 1 day by bright-Glo reagent based assay relative to control ATRA; format: cell-based
T1 sequence (whole entry): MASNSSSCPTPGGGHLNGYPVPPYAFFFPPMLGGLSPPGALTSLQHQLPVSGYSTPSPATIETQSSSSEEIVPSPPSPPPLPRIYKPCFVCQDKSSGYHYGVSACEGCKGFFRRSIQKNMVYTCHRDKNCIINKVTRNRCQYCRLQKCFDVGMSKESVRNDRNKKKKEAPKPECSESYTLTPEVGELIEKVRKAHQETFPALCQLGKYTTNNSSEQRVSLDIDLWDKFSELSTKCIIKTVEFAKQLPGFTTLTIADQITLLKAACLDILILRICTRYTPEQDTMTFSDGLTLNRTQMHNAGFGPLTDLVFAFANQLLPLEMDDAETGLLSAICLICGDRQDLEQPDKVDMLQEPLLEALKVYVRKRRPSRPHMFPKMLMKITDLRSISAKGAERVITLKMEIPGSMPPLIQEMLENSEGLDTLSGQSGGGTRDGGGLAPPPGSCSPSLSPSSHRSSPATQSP

[2] = molecular target: T2, Retinoic acid receptor beta (Mus musculus) (UniProt P22605); experiment: Transactivation of mouse Gal4-fused RARbeta-LBD expressed in COS-7 cells after 1 day by bright-Glo reagent based assay relative to control ATRA; format: cell-based
T2 sequence (whole entry): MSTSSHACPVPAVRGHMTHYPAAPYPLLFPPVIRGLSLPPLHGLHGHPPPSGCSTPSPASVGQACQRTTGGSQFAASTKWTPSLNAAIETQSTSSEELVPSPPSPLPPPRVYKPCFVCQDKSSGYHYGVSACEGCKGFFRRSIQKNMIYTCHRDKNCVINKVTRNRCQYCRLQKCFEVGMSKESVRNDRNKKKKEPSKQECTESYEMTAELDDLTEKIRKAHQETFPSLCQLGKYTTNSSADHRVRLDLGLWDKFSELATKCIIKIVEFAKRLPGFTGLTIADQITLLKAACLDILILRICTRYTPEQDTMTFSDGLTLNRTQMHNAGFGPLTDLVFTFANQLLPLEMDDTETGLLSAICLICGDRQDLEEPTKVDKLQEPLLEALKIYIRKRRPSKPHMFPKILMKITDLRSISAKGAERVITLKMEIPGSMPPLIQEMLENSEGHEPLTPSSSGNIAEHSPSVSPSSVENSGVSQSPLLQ

[3] = molecular target: T3, Retinoic acid receptor gamma (Mus musculus) (UniProt P18911); experiment: Transactivation of mouse Gal4-fused RARgamma-LBD expressed in COS-7 cells after 1 day by bright-Glo reagent based assay relative to control ATRA; format: cell-based
T3 sequence (whole entry): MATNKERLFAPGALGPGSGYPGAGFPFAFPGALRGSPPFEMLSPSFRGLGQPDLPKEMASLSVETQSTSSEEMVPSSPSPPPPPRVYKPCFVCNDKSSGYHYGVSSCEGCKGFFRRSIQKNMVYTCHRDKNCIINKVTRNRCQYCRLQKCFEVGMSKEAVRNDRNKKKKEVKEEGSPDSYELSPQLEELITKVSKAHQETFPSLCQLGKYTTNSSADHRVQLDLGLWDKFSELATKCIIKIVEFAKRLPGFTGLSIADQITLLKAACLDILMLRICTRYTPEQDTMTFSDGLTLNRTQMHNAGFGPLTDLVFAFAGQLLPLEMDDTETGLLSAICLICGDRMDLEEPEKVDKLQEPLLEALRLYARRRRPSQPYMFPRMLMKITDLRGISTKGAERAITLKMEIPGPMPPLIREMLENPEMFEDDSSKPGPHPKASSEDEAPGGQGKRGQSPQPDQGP

[4] = system: Rattus norvegicus; experiment: AUC in Sprague-Dawley rat at 10 mg/kg, po by LC-MS/MS analysis; format: ADME, organism-based; conditions: in vivo
[5] = Oral bioavailability in Sprague-Dawley rat at 10 mg/kg by LC-MS/MS analysis; format: ADME, organism-based; conditions: in vivo

## O=C(O)c1ccc(NC(=O)c2cc(Cl)c(O)c(Cl)c2)cc1
[1]
  Ratio EC50: 92
[2]
  Ratio EC50: 642
[3]
  Ratio EC50: 5000

## COc1c(Cl)cc(C(=O)Nc2ccc(C(=O)O)c(C)c2)cc1OC(C)C
[1]
  Ratio EC50: 4.7

## CCOc1cc(C(=O)Nc2ccc(C(=O)O)cc2)cc(OCC)c1OCC
[1]
  Ratio EC50: 368 to 370
[2]
  Ratio EC50: 64100
[3]
  Ratio EC50: 5880

## Cc1cc(NC(=O)c2cc(Cl)c(OC(C)(C)C)c(OC(C)(C)C)c2)ccc1C(=O)O
[1]
  Ratio EC50: 0.64

## CCOc1c(Cl)cc(C(=O)Nc2ccc(C(=O)O)c(F)c2)cc1OC(C)C
[1]
  Ratio EC50: 1.1

## CCOc1cc(C(=O)Nc2ccc(C(=O)O)cc2)cc(Cl)c1OC(C)C
[1]
  Ratio EC50: 2.1
[2]
  Ratio EC50: 7.1
[3]
  Ratio EC50: 1200

## CC(C)Oc1cc(C(=O)Nc2ccc(C(=O)O)c(F)c2)cc(Cl)c1OC(C)C
[1]
  Ratio EC50: 2.7

## CC(C)Oc1c(Cl)cc(C(=O)Nc2ccc(C(=O)O)cc2)cc1Cl
[1]
  Ratio EC50: 7
[2]
  Ratio EC50: 1420
[3]
  Ratio EC50: 823

## Cc1cc(NC(=O)c2cc(Cl)c(OC(C)C)c(OC(C)C)c2)ccc1C(=O)O
[1]
  Ratio EC50: 0.97

## CCOc1c(Cl)cc(C(=O)Nc2ccc(C(=O)O)c(Cl)c2)cc1Cl
[1]
  Ratio EC50: 151

## CCOc1cc(C(=O)Nc2ccc(C(=O)O)cc2)cc(OC(C)C)c1OCC
[1]
  Ratio EC50: 29
[2]
  Ratio EC50: 2450
[3]
  Ratio EC50: 960

## CCCOc1c(Cl)cc(C(=O)Nc2ccc(C(=O)O)cc2)cc1Cl
[1]
  Ratio EC50: 15
[2]
  Ratio EC50: 139
[3]
  Ratio EC50: 1200

## CCOc1c(Cl)cc(C(=O)Nc2ccc(C(=O)O)c(C)c2)cc1OC
[1]
  Ratio EC50: 33

## CC(C)(C)Oc1cc(C(=O)Nc2ccc(C(=O)O)cc2)cc(Cl)c1OC(C)(C)C
[1]
  Ratio EC50: 0.9
[2]
  Ratio EC50: 38
[3]
  Ratio EC50: 162

## O=C(O)c1ccc(NC(=O)c2cc(Cl)c(OC3CCCC3)c(OC3CCCC3)c2)cc1
[1]
  Ratio EC50: 1.7
[2]
  Ratio EC50: 55
[3]
  Ratio EC50: 571

## CCOc1c(C(C)(C)C)cc(C(=O)Nc2ccc(C(=O)O)cc2)cc1C(C)(C)C
[1]
  Ratio EC50: 0.2

## CCOc1c(Cl)cc(C(=O)Nc2ccc(C(=O)O)cc2)cc1OC1CCC1
[1]
  Ratio EC50: 1

## COc1c(Cl)cc(C(=O)Nc2ccc(C(=O)O)c(F)c2)cc1OC(C)C
[1]
  Ratio EC50: 6.7

## CCOc1c(Cl)cc(C(=O)Nc2ccc(C(=O)O)c(C)c2)cc1OCC1CC1
[1]
  Ratio EC50: 2.6

## CC(C)Oc1cc(C(=O)Nc2ccc(C(=O)O)cc2)cc(OC(C)C)c1OC(C)C
[1]
  Ratio EC50: 27
[2]
  Ratio EC50: 2600
[3]
  Ratio EC50: 225

## COc1c(Cl)cc(C(=O)Nc2ccc(C(=O)O)cc2)cc1Cl
[1]
  Ratio EC50: 30
[2]
  Ratio EC50: 9520
[3]
  Ratio EC50: 5850

## CC1(C)CCC(C)(C)c2c1cc(C(=O)Nc1cc(F)c(C(=O)O)c(F)c1)c(O)c2Cl [NRX195183]
[1]
  Ratio EC50: 11
[2]
  Ratio EC50: 1560
[3]
  Ratio EC50: 9840

## CCOc1c(OC(C)C)cc(C(=O)Nc2ccc(C(=O)O)cc2)cc1OC(C)C
[4]
  AUC: 783782 ng·min/mL

## CCOc1c(Cl)cc(C(=O)Nc2ccc(C(=O)O)c(C(F)(F)F)c2)cc1Cl
[1]
  Ratio EC50: 1.7

## CCOc1c(Cl)cc(C(=O)Nc2ccc(C(=O)O)c(O)c2)cc1Cl
[1]
  Ratio EC50: 33

## CCOc1c(Br)cc(C(=O)Nc2ccc(C(=O)O)cc2)cc1Br
[1]
  Ratio EC50: 5

## CCOc1c(Cl)cc(NC(=O)c2ccc(C(=O)O)cc2)cc1Cl
[1]
  Ratio EC50: 30
[2]
  Ratio EC50: 355
[3]
  Ratio EC50: > 108000

## CCOc1c(OC2CCCC2)cc(C(=O)Nc2ccc(C(=O)O)cc2)cc1OC1CCCC1
[1]
  Ratio EC50: 29
[2]
  Ratio EC50: 4200
[3]
  Ratio EC50: 550

## CCOc1c(Cl)cc(C(=O)Nc2ccc(C(=O)O)c(F)c2)cc1Cl
[1]
  Ratio EC50: 25

## CCOc1c(Cl)cc(C(=O)Nc2ccc(C(=O)O)cc2)cc1Cl
[5]
  bioavailability: > 35%

## CCOc1cc(C(=O)Nc2ccc(C(=O)O)c(C)c2)cc(Cl)c1OC(C)C
[1]
  Ratio EC50: 7

## CCCCOc1c(Cl)cc(C(=O)Nc2ccc(C(=O)O)cc2)cc1Cl
[1]
  Ratio EC50: 84
[2]
  Ratio EC50: 717
[3]
  Ratio EC50: 1480

## O=C(O)c1ccc(NC(=O)c2cc(Cl)c(OC3CCC3)c(OC3CCC3)c2)cc1
[1]
  Ratio EC50: 2.4
[2]
  Ratio EC50: 53
[3]
  Ratio EC50: 1060
